Reference: ChEMBL document CHEMBL1201862, “PubChem BioAssay data set” (2004)
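Briefly, cells in 96-well plates were exposed to five compound concentrations for 48 h, and endpoints were estimated by linear interpolation. GI50: concentration for 50% inhibition of growth.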 Active and inactive are the calls of the source. No stated cut-off is given here; in the data, active = GI50 up to about 1.1 µM and inactive = higher.

Key:
Experiment in all cases: inhibition of tumour cell growth, NCI panel, 48 h
[1] = tested on: SF-539
[2] = tested on: K562
[3] = tested on: A549
[4] = tested on: SK-OV-3
[5] = tested on: SR
[6] = tested on: SF-268
[7] = tested on: SK-MEL-28
[8] = tested on: UO-31
[9] = tested on: XF498
[10] = tested on: DMS-273
[11] = tested on: LOX IMVI
[12] = tested on: SN12C
[13] = tested on: 786-0
[14] = tested on: COLO 205
[15] = tested on: CAKI-1
[16] = tested on: UACC-257
[17] = tested on: MOLT-4

Compound	GI50 [1]	GI50 [2]	GI50 [3]	GI50 [4]	GI50 [5]	GI50 [6]	GI50 [7]	GI50 [8]	GI50 [9]	GI50 [10]	GI50 [11]	GI50 [12]	GI50 [13]	GI50 [14]	GI50 [15]	GI50 [16]	GI50 [17]
O=C(CCN(CCO)CCO)Nc1ccc2c(c1)C(=O)c1ccc(NC(=O)CCN(CCO)CCO)cc1C2=O	4.81 µM (inactive)	18.5 µM (inactive)	44.4 µM (inactive)	14.9 µM (inactive)	14.8 µM (inactive)	12.2 µM (inactive)	15.1 µM (inactive)	10.4 µM (inactive)	11.9 µM (inactive)	6.64 µM (inactive)	14.2 µM (inactive)	12.8 µM (inactive)	4.62 µM (inactive)	10.7 µM (inactive)	5.56 µM (inactive)	24.1 µM (inactive)	13.8 µM (inactive)
CCOC(=O)CCn1cnc(N)n1	> 100 µM (inactive)	> 100 µM (inactive)	> 100 µM (inactive)	> 100 µM (inactive)	> 100 µM (inactive)	–	> 100 µM (inactive)	> 100 µM (inactive)	> 100 µM (inactive)	> 100 µM (inactive)	> 100 µM (inactive)	> 100 µM (inactive)	> 100 µM (inactive)	> 100 µM (inactive)	> 100 µM (inactive)	> 100 µM (inactive)	> 100 µM (inactive)
C=CC1=CC(C)C[C@]1(O)C(=O)OC (stereo partly specified)	> 100 µM (inactive)	< 0.01 µM (active)	< 0.01 µM (active)	> 100 µM (inactive)	2.75 µM (inactive)	< 0.01 µM (active)	< 0.01 µM (active)	< 0.01 µM (active)	< 0.01 µM (active)	< 0.01 µM (active)	< 0.01 µM (active)	< 0.01 µM (active)	< 0.01 µM (active)	< 0.01 µM (active)	< 0.01 µM (active)	< 0.01 µM (active)	< 0.01 µM (active)
CC(=O)/C=C/c1ccc(C2CC(C)=Nc3c(ccc4c3C(=O)c3ccccc3C4=O)N2)cc1 (stereo unspecified)	63.8 µM (inactive)	> 57.5 µM (inactive)	> 40.1 µM (inactive)	15.9 µM (inactive)	> 100 µM (inactive)	> 71 µM (inactive)	> 100 µM (inactive)	4.88 µM (inactive)	> 100 µM (inactive)	66.1 µM (inactive)	8.83 µM (inactive)	> 81.5 µM (inactive)	54.6 µM (inactive)	60.7 µM (inactive)	6.98 µM (inactive)	–	> 100 µM (inactive)
Cc1cc(N)c2cc(NC(=O)CCCCCCCCC(=O)Nc3ccc4nc(C)cc(N)c4c3)ccc2n1	16.8 µM (inactive)	16.9 µM (inactive)	6.35 µM (inactive)	> 68.4 µM (inactive)	11.7 µM (inactive)	29.6 µM (inactive)	42.8 µM (inactive)	> 100 µM (inactive)	> 27.2 µM (inactive)	7.19 µM (inactive)	22.2 µM (inactive)	3.87 µM (inactive)	28.2 µM (inactive)	18.1 µM (inactive)	> 100 µM (inactive)	> 50.4 µM (inactive)	5.07 µM (inactive)
CN/N=C(\C)CC(=O)Nc1cccc(Cl)c1C	> 100 µM (inactive)	> 100 µM (inactive)	> 100 µM (inactive)	> 100 µM (inactive)	28.6 µM (inactive)	> 100 µM (inactive)	> 100 µM (inactive)	> 100 µM (inactive)	> 100 µM (inactive)	53.7 µM (inactive)	> 100 µM (inactive)	> 100 µM (inactive)	> 100 µM (inactive)	> 100 µM (inactive)	> 100 µM (inactive)	> 100 µM (inactive)	> 100 µM (inactive)
CCCCN(CCCC)CCCn1cnc2ncccc2c1=O	> 100 µM (inactive)	> 100 µM (inactive)	> 100 µM (inactive)	> 100 µM (inactive)	> 100 µM (inactive)	> 100 µM (inactive)	> 100 µM (inactive)	> 100 µM (inactive)	> 100 µM (inactive)	> 100 µM (inactive)	> 100 µM (inactive)	> 100 µM (inactive)	> 100 µM (inactive)	65.6 µM (inactive)	> 100 µM (inactive)	–	> 100 µM (inactive)
